{"source": "patent US20250222028A1", "about": "“ENGINEERED IMMUNE CELL PLATFORM” (Cancer Research Technology Limited, priority 2022, published 2025)", "key": {"[1]": {"tested_on": "GLI1", "experiment": "GLI1 mRNA expression by qRT-PCR in human CD8+ T cells and CTLs", "format": "cell-based", "experimental": "FIG. 3. L-type Cav channel agonists increase expression of GLI1 and enhance specific cell killing by human CD8+ CTLs. Naïve human CD8+ T cells were purified from the buffy coat layer of blood isolated from healthy donors, and were stimulated using ImmunoCult™ CD3/CD28/CD2 human T-Cell Activator and again restimulated at day 10 for 3 days. (A) Human CTLs were restimulated on day 15-20 for 24 h with plate-bound anti-CD3 in the presence of 10 μM of FPL64176 or carrier control before RNA was extracted for qRT-PCR analysis. n=1 healthy donor. TBP is used as a reference gene. (B) Updated graph of (A) showing n=3 independent experiments/healthy donors. Gli1 expression is normalised to carrier. […] Error bars indicate SD. p values were calculated using an unpaired two-tailed Student's t test (B) or a two-way ANOVA (C/D). * indicates p<0.05, ** indicates p<0.01, **** indicates p<0.0001.\nIn order to assess the role of L-type Cav channel agonists in controlling the activation and effector function of human CD8+ T cells, naive primary human CD8+ T cells were purified from the buffy coat layer of blood isolated from healthy donors. Cells were stimulated using ImmunoCult™ Human CD3/CD28/CD2 T Cell Activator beads for 24 hours in the presence of 5 or 10 μM FPL 64176 or carrier control, and GLI1 mRNA expression was assessed by qRT-PCR. […]"}, "[2]": {"tested_on": "K562 target cells", "experiment": "LDH killing assay, NK-92 cells with K562 target cells", "format": "cell-based, human", "conditions": "10 μM, vs carrier control", "experimental": "FIG. 5. L-type Cav channel agonists increase GLI1 expression in the human NK cell line NK-92 and promote specific tumour cell killing. (A) NK-92 cells were stimulated using an anti-NKp46 mAb for 4 hours in the presence of 10 μM FPL 64176, and GLI1 expression was assessed using qRT-PCR. Data is n=4 independent experiments. (B) NK-92 cells were stimulated using an anti-NKp46 mAb for 4 hours in the presence of 100 μM Bay K8644, and GLI1 expression was assessed using qRT-PCR. Data is n=3 independent experiments. […]\nFIG. 7. […] Killing of K562 tumour cells was assessed after 24 h by LDH killing assay. […]\nIn order to establish whether an increase in GLI1 expression is correlated with an increase in NK-92 cell effector function, NK-92 were co-cultured with K562 myelogenous leukaemia cells in the presence of 10 μM FPL 64176 or carrier control, at the effector:target ratios indicated in FIG. 5C. Cell killing was assessed using the LDH assay, as previously described.\nTo determine if the increased specific cell killing seen in Gorlin patients can be achieved by engineering cells to express a gain-of-function mutation resulting in increased Gli1 signalling, NK-92 cells were engineered to stably express the I756T GOF mutation in Cav1.4. […] Killing of K562 tumour cells was assessed after 24 h by LDH killing assay. […]"}, "[3]": {"tested_on": "MC38-Ova tumour", "experiment": "Adoptive transfer of agonist-treated OTI T cells into MC38-Ova tumour bearing Rag2 KO mice, Cleaved Caspase 3 immunohistochemistry", "format": "in vivo", "conditions": "T cells re-stimulated in vitro with agonist before transfer; tumours excised 24 hours after transfer", "experimental": "FIG. 13. […] Cytotoxic OTI T cells were re-stimulated in vitro in the presence of FPL 64176 or carrier control before adoptive transfer into MC38-Ova tumour bearing Rag2 KO mice via tail vein injection. 24 hours after the adoptive transfer, tumours were excised and analysed by immunohistochemistry for Cleaved Caspase 3 (A). 3 mice per condition, % CC3 over whole tumour area from all mice. (B) Repeat experiment with 3-4 mice per condition. Each data point represents the average CC3 staining of 3 separate tumour sections. Overall CC3 staining (top panel) and weak, moderate, and strong CC3 staining (bottom row), respectively, are shown.\nAs described above, the present invention may find use in adoptive transfer. To investigate the applicability of Cav channel agonist treatment in an adoptive transfer treatment regime, cytotoxic OTI T cells were re-stimulated in vitro in the presence of FPL 64176 or carrier control before adoptive transfer into MC38-Ova tumour bearing Rag2 KO mice via tail vein injection. 24 hours after the adoptive transfer, tumours were excised and analysed by immunohistochemistry for Cleaved Caspase 3. FIGS. 13A&B indicate that treatment of tumour-specific T cells with a Cav channel agonist prior to adoptive transfer leads to increased tumour cell killing compared to adoptive transfer with T cells that have not been treated with a Cav channel agonist."}, "[4]": {"tested_on": "L-type voltage gated Ca^2+ channel", "experiment": "Calcium flux after TCR crosslinking in murine CD8+ CTLs", "format": "cell-based", "from_the_text": "FIG. 14. […] Murine CD8^+ CTLs were loaded with Calcium Sensor Dye eFluor™ 514, anti-CD3ε antibodies and calcium channel inhibitors/agonist. Other Calcium channels expressed in CD8 T cells were inhibited: “Block”=BTP2 inhibits CRAC channels downstream of the TCR, and BCTC inhibits TRPV channels. […] T cell receptor (TCR) crosslinking was induced 30 s after the start of sample acquisition by adding antibodies to crosslink the TCR. Arrows indicate the initiation of the calcium flux following TCR crosslinking. The line indicates the baseline fluorescence of the Calcium Sensor Dye eFluor™ 514. Data shown is representative of two independent experiments."}}, "data": [{"smiles": "COC(=O)c1c(C)[nH]c(C)c1C(=O)c1ccccc1Cc1ccccc1", "note": "[FPL 64176]", "values": [{"measurement": "GLI1 expression", "setting": "[1]; human CD8+ CTLs restimulated day 15-20 with plate-bound anti-CD3, 10 μM, 24 hours (FIG. 3B)", "result": "increase"}, {"measurement": "GLI1 expression", "setting": "[1]; naive human CD8+ T cells, CD3/CD28/CD2 activator 24 hours, 5 or 10 μM (FIG. 3A)", "result": "dose-dependent increase"}, {"measurement": "target cell killing by NK-92 cells", "setting": "[2]", "result": "enhanced"}, {"measurement": "tumour cell death in vivo (Cleaved Caspase 3 staining)", "setting": "[3]", "result": "increased tumour cell death"}, {"measurement": "initiation of Ca^2+ flux following TCR crosslinking", "setting": "[4]", "result": "accelerates"}, {"measurement": "Cav-mediated Ca^2+ flux", "setting": "[4]; CRAC and TRPV channels blocked with BTP2 and BCTC", "result": "specifically increases"}]}]}
